# What was measured:
# [1] = system: Gingivitis, edema, mucosal inflammation; experiment: Clinical observation of oral inflammation, edema and regeneration (gingivitis, dentition difficilis, healing cap, inflamed extraction socket); assay type: in vivo, human
# Method: (§1) Initial motivation and cleaning instruction, supragingival biofilm reduction by trimestrially repeated brushing in CHX solution 0.07 wt % for two weeks by the patient and tooth and pocket cleaning by ultrasonic scaling as well as covering exposed root dentine by adhesive fillings to hide protein coaggregational binding sites for anaerobic microbial species (A.a., P.g., T.d.) was administered. […]
# Periodontitis = Periodontitis cases: sites with CPITN code 3+4 / code 4 pockets before and after the composition; assay type: in vivo, human
# From the text: As indicator of periodontal status pocket depth is used according to Treatment Need codes 3 and 4 in Community Periodontal Index—Treatment Needs (CPITN). This code is applied to every treated tooth or implant.
# Periodontal pockets: shallow (Code 3: 4-5 mrn) and deep (Code 4: 6 mm or more).
# as §1
# [2] = Case 11, 4000 I.E. systemically 2 months
# [3] = cases 10, 11, systemic application over 2 months
compound,measurement,setting,value
"C=C1CC[C@H](O)C/C1=C/C=C1\CCC[C@]2(C)[C@@H]([C@H](C)CCCC(C)C)CC[C@@H]12 [vit D3, vitamin D3]",edema,"[1]; Case 10, 4000 I.E. systemically 2 months",no edema
same,pockets,"[1]; Case 10, Gingivitis, Mc Calls edema, 4000 I.E. systemically 2 months","Shallow pockets,"
same,Code 4: severe,"Periodontitis; Case 11, 18 sites/3, 4000 I.E. systemically 2 months, before 22",22
same,edema,Periodontitis; [2],no edema
same,pocket regeneration code 3,Periodontitis; [2],+33%
same,sensitivity,Periodontitis; [2],"no sensitivity,"
same,CPITN Code 3 + 4 Nr.,"Periodontitis; Case 11, Periodontitis, Periimplantitis, 18 sites/3, 4000 I.E. systemically 2 months, before 61",38
same,"edema, inflammation and attachment loss",Periodontitis; [3],"stop of edema, inflammation and attachment loss"
same,regeneration in code 3 CPITN pockets,Periodontitis; [3],some regeneration

# Reference: patent publication US20140072657A1, “NOVEL PHARMACEUTICAL FORMULATION” (priority 2011, published 2014)
